How the values were obtained:
[1] = target: T1, CYP2C9 (Homo sapiens, UniProt P11712); assay: Cytochrome inhibition, fluorescent detection (7-MFC substrate); assay type: in vitro ADME; settings: recombinant human CYP2C9
T1 construct: host or cells: insect cell microsomes
Protocol: To screen the inhibition potential of the compounds, recombinant human cytochrome P450 enzymes (CYP1A2, CYP2C9, CYP2C19, CYP2D6, and CYP3A4) and probe substrates were used with the fluorescent detection method. Incubations were conducted in 200-µL volume 96 well microtiter plates (COSTAR 3915). Addition of cofactor-buffer mixture (KH2PO4 buffer, 1.3 mM NADP+, 3.3 mM MgCl2, 3.3 mM Glucose-6-phosphate and 0.4 U/mL Glucose-6-phosphate Dehydrogenase), supersomes control, standard inhibitors (Furafyline, Tranylzypromine, Ketoconazole, Sulfaphenazole, and Quinidine; from Sigma Aldrich), and test compounds to plates were carried out using a a liquid handling station (Zephyr Caliper). The plate was then pre-incubated at 37 °C for 5 min, and the reaction initiated by the addition of pre-warmed enzyme/substrate (E/S) mix. […] Fluorescence per well was measured using a fluorescence plate reader (Tecan M1000 pro), and the percentage of inhibition was calculated.

[2] = tested on: SAMR1 and SAMP8 mice; assay: Hippocampal protein levels by Western blotting; assay type: in vivo, mouse; settings: hippocampus
Protocol: Male SAMR1 and SAMP8 mice (n = 41) with 20-weeks-old were used to carry out cognitive and molecular analysis. The animals were randomly divided into four groups: SAMR1 control (SR1 Ct) group (n = 11), SAMP8 control (SP8 Ct) group (n = 8), SAMR1 treated with RL-208 (SR1 RL-208 (5 mg/Kg)) group (n = 10) and SAMP8 treated with RL-208 (SP8 RL-208 (5 mg/Kg)) group (n = 12). Animals had free access to food and water, under standard temperature conditions (22±2 °C) and 12h:12h light-dark cycles (300 lux/0 lux). RL-208, (3,4,8,9-tetramethyltetracyclo[4.4.0.0^3,9.0^4,8]dec-1-yl)-methylamine hydrochloride, (5 mg/kg/day) was administered through drinking water for four weeks before starting the cognitive test. RL-208 was administered up to euthanasia (Figure 1A). Water consumption was controlled each week for each cage and strain. Afterwards, RL-208 concentration was adjusted accordingly to reach the optimal dose for each cage. Three days after the behavioural and cognitive tests, mice were euthanized by cervical dislocation. Brains were immediately removed from the skull. The hippocampus and cortex were then isolated and frozen in powdered dry ice. They were maintained at −80 °C for further use. Tissue samples were homogenized in lysis buffer containing phosphatase and protease inhibitors (Cocktail II, Sigma). Total protein levels were obtained, and protein concentration was determined by the method of Bradford. For Western blotting (WB), aliquots of 15 μg of hippocampal protein extraction per sample were used. Protein samples were separated by Sodium dodecyl sulphate-Polyacrylamide gel electrophoresis (SDS-PAGE) (8–20%) and transferred onto Polyvinylidene difluoride (PVDF) membranes (Millipore). Afterwards, membranes were blocked in 5% non-fat milk in Tris-buffered saline (TBS) solution containing 0.1% Tween 20 TBS (TBS-T) for 1 hour at room temperature, followed by overnight incubation at a 4 °C with the primary antibodies listed in Table S1. Then, membranes were washed and incubated with secondary antibodies for 1 hour at room temperature. Immunoreactive proteins were viewed with the chemiluminescence-based detection kit, following the manufacturer’s protocol (ECL Kit, Millipore), and digital images were acquired using ChemiDoc XRS+ System (BioRad). Semi-quantitative analyses were performed using ImageLab software (BioRad), and results were expressed in arbitrary units (AU), considering control protein levels as 100%. Protein loading was routinely monitored by immunodetection of Glyceraldehyde-3-phosphate dehydrogenase (GAPDH).

T1 sequence (P11712 whole entry): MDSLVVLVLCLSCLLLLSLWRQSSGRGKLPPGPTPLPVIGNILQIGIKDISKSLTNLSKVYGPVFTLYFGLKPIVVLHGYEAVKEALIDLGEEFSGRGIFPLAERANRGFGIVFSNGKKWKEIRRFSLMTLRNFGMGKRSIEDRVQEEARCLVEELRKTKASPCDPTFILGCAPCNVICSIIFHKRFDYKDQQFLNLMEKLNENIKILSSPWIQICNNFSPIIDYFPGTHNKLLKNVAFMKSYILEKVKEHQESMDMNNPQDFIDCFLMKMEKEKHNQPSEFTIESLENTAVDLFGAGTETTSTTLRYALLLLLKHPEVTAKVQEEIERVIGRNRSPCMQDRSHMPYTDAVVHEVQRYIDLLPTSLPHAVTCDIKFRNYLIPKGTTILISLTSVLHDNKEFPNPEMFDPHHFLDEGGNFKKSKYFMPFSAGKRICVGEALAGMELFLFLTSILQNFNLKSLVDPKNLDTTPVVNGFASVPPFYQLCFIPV

**Q.** What does the source list for `CC12CC3CC1(C)C1(C)CC3(CN)CC21C.Cl` [RL-208, (3,4,8,9-tetramethyltetracyclo [4.4.0.0^3,9.0^4,8]dec-1-yl)methylamine hydrochloride]?
**A.** CYP2C9 inhibition [1]: 12 ± 2%; PSD95 protein levels ([2]; RL-208 treated mice): augmented but did not reach significance in SP8 mice; Synaptophysin (SYN) protein levels ([2]; RL-208 treated mice): significant increase; ADAM10 protein levels ([2]; SAMP8): prevented the loss; SNAP25 protein levels ([2]; SP8 RL-208): significant-high; CDK5 activation (p-CDK5/CDK5 ratio) ([2]; SP8 RL-208 vs control group): significantly reduced; p25/p35 ratio ([2]; SP8 RL-208 vs control group): significantly reduced; GPX1 protein levels ([2]; SP8 mice, not in SR1): increased, in a significant way; SOD1 protein levels ([2]; SP8 mice, not in SR1): increased, in a significant way; 120BPD (Spectrin breakdown product) ([2]; SP8 strain, not in SR1): reduced; Calpain-1 protein levels ([2]; SP8 strain, not in SR1): reduced; Caspase-3 protein levels ([2]; SP8 strain, not in SR1): reduced; TrkB-FL protein levels ([2]; both SR1 and SP8): increased significantly; p-NMDAR (Tyr1472) protein levels ([2]; both strains): increased in a significant way; Tau phosphorylation (Ser396) ([2]; both treated mice groups): significant reduction; NMDAR2A protein levels ([2]; neither in SR1 nor in SP8): did not produce significant differences; TrkB-ICD protein levels ([2]; treated mice): reduced

Source: article PMC7151078, “A Novel NMDA Receptor Antagonist Protects against Cognitive Decline Presented by Senescent Mice” (Pharmaceutics, 2020)
